Measured values taken from PubChem BioAssay (NCI).
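1) Cells in 96-well plates. 2) Compound, 48 h, 5 concentrations. 3) Linear interpolation between surrounding doses. 4) Unreached endpoint = highest concentration. At the GI50, growth is halved. The concentration for full growth arrest is given as TGI.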

Assays:
Assay in all cases: DTP human tumour cell line panel, 48 h
[1] = test system: HL-60(TB) leukemia
[2] = test system: RPMI-8226 leukemia
[3] = test system: CCRF-CEM leukemia
[4] = test system: SK-MEL-2 melanoma
[5] = test system: BT-549 breast
[6] = test system: DU-145 prostate
[7] = test system: HOP-62 NSCLC
[8] = test system: MDA-MB-435
[9] = test system: MDA-MB-231 breast
[10] = test system: SK-OV-3 ovarian
[11] = test system: SN12C renal
[12] = test system: KM12 colon
[13] = test system: OVCAR-8 ovarian
[14] = test system: MOLT-4 leukemia
[15] = test system: SNB-19 CNS
[16] = test system: HS 578T breast
[17] = test system: UACC-257 melanoma
[18] = test system: SF-268 CNS
[19] = test system: CAKI-1 renal
[20] = test system: NCI/ADR-RES ovarian
[21] = test system: LOX IMVI melanoma
[22] = test system: SK-MEL-28 melanoma
[23] = test system: T-47D breast
[24] = test system: SK-MEL-5 melanoma
[25] = test system: OVCAR-4 ovarian
[26] = test system: TK-10 renal
[27] = test system: SNB-75 CNS
[28] = test system: SF-295 CNS
[29] = test system: EKVX NSCLC
[30] = test system: HCC-2998 colon
[31] = test system: NCI-H226 lung
[32] = test system: SR leukemia
[33] = test system: MALME-3M melanoma
[34] = test system: ACHN renal
[35] = test system: U251 CNS
[36] = test system: K-562 leukemia
[37] = test system: SW-620 colon
[38] = test system: NCI-H522 lung
[39] = test system: UACC-62 melanoma
[40] = test system: NCI-H23 lung
[41] = test system: UO-31 renal
[42] = test system: A498 renal
[43] = test system: HCT-15 colon
[44] = test system: HOP-92 NSCLC
[45] = test system: PC-3 prostate
[46] = test system: RXF 393 renal
[47] = test system: SF-539 CNS
[48] = test system: 786-0 renal
[49] = test system: A549 NSCLC
[50] = test system: COLO 205 colon
[51] = test system: NCI-H460 lung
[52] = test system: OVCAR-5 ovarian
[53] = test system: HCT-116 colon
[54] = test system: HT29 colon
[55] = test system: IGROV1 ovarian
[56] = test system: MCF7 breast
[57] = test system: OVCAR-3 ovarian
[58] = test system: M14 melanoma

## N=C(N)c1ccc(-c2ccc(-c3ccc(Cl)c(Cl)c3)s2)cc1
[1]
  GI50: 1.7 µM
  TGI: 4.23 µM
[2]
  GI50: 1.89 µM
  TGI: 4.37 µM
[3]
  GI50: 1.54 µM
  TGI: 4.26 µM
[4]
  GI50: 2.51 µM
  TGI: 5.8 µM
[5]
  GI50: 6.39 µM
  TGI: 50 µM
[6]
  GI50: 1.75 µM
  TGI: 3.13 µM

## Cn1c(=Nc2ccc(Cl)cc2)sc2ccccc21
[7]
  TGI: > 100 µM
[8]
  TGI: > 100 µM
[1]
  TGI: > 100 µM
[9]
  TGI: > 100 µM
[10]
  TGI: > 100 µM
[11]
  TGI: > 100 µM
[12]
  TGI: > 100 µM
[13]
  TGI: > 100 µM
[14]
  TGI: > 100 µM
[15]
  TGI: > 100 µM
[16]
  TGI: > 100 µM
[17]
  TGI: > 100 µM
[18]
  TGI: > 100 µM
[19]
  TGI: > 100 µM
[20]
  TGI: > 100 µM
[2]
  TGI: > 100 µM
[21]
  TGI: > 100 µM
[22]
  TGI: > 100 µM
[23]
  TGI: > 100 µM
[24]
  TGI: > 100 µM
[3]
  TGI: > 100 µM
[25]
  TGI: > 100 µM
[4]
  TGI: > 100 µM
[26]
  TGI: 98.1 µM
[27]
  TGI: > 100 µM
[28]
  TGI: > 100 µM
[29]
  TGI: > 100 µM
[30]
  TGI: 68.3 µM
[31]
  TGI: > 100 µM
[32]
  TGI: > 100 µM
[33]
  TGI: > 100 µM
[34]
  TGI: > 100 µM
[35]
  TGI: > 100 µM
[36]
  TGI: > 100 µM
[37]
  TGI: > 100 µM
[38]
  TGI: 35 µM
[6]
  TGI: > 100 µM
[39]
  TGI: > 100 µM
[40]
  TGI: > 100 µM
[41]
  TGI: > 100 µM
[42]
  TGI: > 100 µM
[43]
  TGI: 65.7 µM
[44]
  TGI: 85.7 µM
[45]
  TGI: > 100 µM
[46]
  TGI: > 100 µM
[47]
  TGI: > 100 µM
[48]
  TGI: > 100 µM
[49]
  TGI: > 100 µM
[50]
  TGI: 81.3 µM
[51]
  TGI: > 100 µM
[52]
  TGI: > 100 µM
[53]
  TGI: > 100 µM
[54]
  TGI: > 100 µM
[55]
  TGI: > 100 µM

## O=C(Nc1cccc2[nH]c(C(F)(F)F)nc12)c1cc(Cl)ccc1Cl
[7]
  GI50: 2.34 µM
  TGI: 7.37 µM
[8]
  GI50: 2.96 µM
  TGI: 12.4 µM
[1]
  GI50: 2.87 µM
  TGI: 7.53 µM
[9]
  GI50: 2.43 µM
  TGI: 6.71 µM
[10]
  GI50: 2.21 µM
  TGI: 6.06 µM
[11]
  GI50: 2.78 µM
  TGI: 9.59 µM
[12]
  GI50: 3.37 µM
  TGI: 11.2 µM
[13]
  GI50: 3.68 µM
  TGI: 31.6 µM
[14]
  GI50: 3 µM
  TGI: 8.65 µM
[15]
  GI50: 3.72 µM
  TGI: > 100 µM
[16]
  GI50: 2.91 µM
  TGI: 12.9 µM
[17]
  GI50: 3.34 µM
  TGI: 12.3 µM
[18]
  GI50: 4.69 µM
  TGI: > 100 µM
[19]
  GI50: 2.7 µM
  TGI: 31.3 µM
[20]
  GI50: 2.87 µM
  TGI: 8.89 µM
[2]
  GI50: 2.3 µM
  TGI: 6.3 µM
[21]
  GI50: 2.97 µM
  TGI: 10 µM
[56]
  GI50: 2.81 µM
  TGI: 49.7 µM
[22]
  GI50: 4.95 µM
  TGI: 35.4 µM
[23]
  GI50: 1.84 µM
  TGI: 6.43 µM
[57]
  GI50: 3.4 µM
  TGI: 10.3 µM
[24]
  GI50: 1.77 µM
  TGI: 3.45 µM
[3]
  GI50: 3.16 µM
  TGI: 46.8 µM
[25]
  GI50: 2.59 µM
  TGI: > 100 µM
[4]
  GI50: 2.79 µM
  TGI: 6.66 µM
[26]
  GI50: 4.17 µM
  TGI: 36.2 µM
[27]
  GI50: 2.06 µM
  TGI: 8.06 µM
[28]
  GI50: 2.23 µM
  TGI: 6.55 µM
[30]
  GI50: 3.87 µM
  TGI: 15.8 µM
[31]
  GI50: 3.39 µM
  TGI: 25.5 µM
[32]
  GI50: 3.04 µM
  TGI: 8.96 µM
[33]
  GI50: 2.85 µM
  TGI: 8.61 µM
[34]
  GI50: 2.88 µM
  TGI: 16.6 µM
[35]
  GI50: 3.47 µM
  TGI: 14.1 µM
[5]
  GI50: 2.33 µM
  TGI: 8.14 µM
[36]
  GI50: 3.71 µM
  TGI: > 100 µM
[37]
  GI50: 3.6 µM
  TGI: 14.8 µM
[38]
  GI50: 2.27 µM
  TGI: 6.2 µM
[6]
  GI50: 4.94 µM
  TGI: > 100 µM
[39]
  GI50: 3.47 µM
  TGI: 16.1 µM
[58]
  GI50: 3.32 µM
  TGI: 16.3 µM
[40]
  GI50: 2.81 µM
  TGI: 7.78 µM
[41]
  GI50: 2.78 µM
  TGI: 11.3 µM
[42]
  GI50: 1.63 µM
  TGI: 6.19 µM
[43]
  GI50: 3.38 µM
  TGI: 19.4 µM
[44]
  GI50: 2.09 µM
  TGI: 6.72 µM
[45]
  GI50: 3.1 µM
  TGI: 92.9 µM
[47]
  GI50: 3.07 µM
  TGI: 15.3 µM
[48]
  GI50: 3.01 µM
  TGI: 12.1 µM
[49]
  GI50: 3.45 µM
  TGI: > 100 µM
[50]
  GI50: 1.84 µM
  TGI: 3.62 µM
[51]
  GI50: 3.09 µM
  TGI: > 100 µM
[52]
  GI50: 4.03 µM
  TGI: > 100 µM
[53]
  GI50: 3.06 µM
  TGI: 12.9 µM
[54]
  GI50: 3.62 µM
  TGI: 14.7 µM
[55]
  GI50: 6.04 µM
  TGI: > 100 µM
